Measurements reported in the RepoRT retention time repository.

Experiment: HILIC, Waters ACQUITY UPLC BEH Amide, 100 × 2.1 mm, 1.7 µm; A: water + 0.125% formic acid + 10 mM ammonium formate; B: 5% water + 95% acetonitrile + 0.125% formic acid + 10 mM ammonium formate; gradient (min/%B) 0/100 2/100 7.7/70 9.5/40 10.25/30 12.75/100 17/100
Settings: stereoisomer not certain

Compound	LC retention time [min]
NCCC(=O)NC(Cc1cnc[nH]1)C(=O)O (configuration not stated) [Carnosine]	9.54
COc1ccccc1OCCNCC(O)COc1cccc2[nH]c3ccccc3c12 (configuration not stated) [Carvedilol]	3.17
NC(C(=O)NC1C(=O)N2C(C(=O)O)=C(Cl)CSC12)c1ccccc1 (configuration not stated) [Cefaclor]	5.61
NC(C(=O)NC1C(=O)N2C(C(=O)O)=C(CSc3cn[nH]n3)CSC12)c1ccc(O)cc1 (configuration not stated) [Cefatrizine]	7.98
C=CC1=C(C(=O)O)N2C(=O)C(NC(=O)C(=NO)c3csc(N)n3)C2SC1 (configuration not stated) [Cefdinir]	6.94
C=CC1=C(C(=O)O)N2C(=O)C(NC(=O)C(=NOCC(=O)O)c3csc(N)n3)C2SC1 (configuration not stated) [Cefixime]	7.79
COCc1c(C(C)C)nc(C(C)C)c(C=CC(O)CC(O)CC(=O)O)c1-c1ccc(F)cc1 (configuration not stated) [Cerivastatin]	1.18
NCC1CCC(C(=O)Oc2ccc(CCC(=O)O)cc2)CC1 (configuration not stated) [Cetraxate]	5.29
CN=C1CN(O)C(c2ccccc2)=c2cc(Cl)ccc2=N1 [Chlordiazepoxide]	1.35
O=C(C=Cc1ccc(O)c(O)c1)OC1CC(O)(C(=O)O)CC(O)C1O (configuration not stated) [Chlorogenic acid]	6.68
CN(C)CCC(c1ccc(Cl)cc1)c1ccccn1 (configuration not stated) [Chlorpheniramine]	2.54
C[N+](C)(C)CCO [Choline [M]+]	5.18
CC1(C)CC1C(=O)NC(=CCCCCSCC(N)C(=O)O)C(=O)O (configuration not stated) [Cilastatin]	7.63
CN(C)CCCSc1ccccc1NC(=O)C=Cc1ccccc1 [Cinanserin]	2.61
O=CC=Cc1ccccc1 [Cinnamaldehyde]	9.18
COc1cc(N)c(Cl)cc1C(=O)NC1CCN(CCCOc2ccc(F)cc2)CC1OC (configuration not stated) [Cisapride]	2.28
NC(=O)NCCCC(N)C(=O)O (configuration not stated) [Citrulline]	8.74
Nc1nc(Cl)nc2c1ncn2C1CC(O)C(CO)O1 (configuration not stated) [Cladribine]	1.95
CCC1OC(=O)C(C)C(OC2CC(C)(OC)C(O)C(C)O2)C(C)C(OC2OC(C)CC(N(C)C)C2O)C(C)(OC)CC(C)C(=O)C(C)C(O)C1(C)O (configuration not stated) [Clarithromycin]	3
CN1C(=O)CC(=O)N(c2ccccc2)c2cc(Cl)ccc21 [Clobazam]	1.1
NC(=NCc1ccc(Cl)cc1)SCCCc1cnc[nH]1 [Clobenpropit]	6.13

Compound	LC retention time [min]
CC(C)N=c1cc2n(-c3ccc(Cl)cc3)c3ccccc3nc-2cc1Nc1ccc(Cl)cc1 [Clofazimine]	1.78
CN(C)CCCN1c2ccccc2CCc2ccc(Cl)cc21 [Clomipramine]	2.31
Clc1cccc(Cl)c1NC1=NCCN1 [Clonidine]	2.85
CCOC(=O)C1C(OC(=O)c2ccccc2)CC2CCC1N2C (configuration not stated) [Cocaethylene]	2.12
COC(=O)C1C(OC(=O)c2ccccc2)CC2CCC1N2C (configuration not stated) [Cocaine]	2.2
COc1cc(C=CC=O)ccc1O [Coniferylaldehyde]	1.14
Nc1ncnc2c1ncn2C1OC(CO)CC1O (configuration not stated) [Cordycepin]	3.54
CC12CCC(=O)C=C1CCC1C2C(O)CC2(C)C(C(=O)CO)CCC12 (configuration not stated) [Corticosterone]	1.25
CC12CCC(=O)C=C1CCC1C2C(=O)CC2(C)C1CCC2(O)C(=O)CO (configuration not stated) [Cortisone]	1.29
CC12CCC(=O)C=C1CCC1C2CCC2(C)C1CCC2(O)C(=O)CO (configuration not stated) [Cortodoxone]	1.15
COc1cc2c(cc1OC)C1C(C)c3ccc(OC)c(OC)c3CN1CC2 (configuration not stated) [Corydaline]	1.52
CN1C(=O)CCC1c1cccnc1 (configuration not stated) [Cotinine]	1.49
O=c1ccc2ccccc2o1 [Coumarin]	1.08
CN(CC(=O)O)C(=N)N [Creatine]	8.15
CC12CCC3C(CC=C4CC(O)CCC43C)C1CCC2=O (configuration not stated) [Dehydroepiandrosterone]	1.03
COc1ccc2c(c1)C13CCCCC1C(C2)N(C)CC3 (configuration not stated) [Dextromethorphan]	2.64
CN1CCC23CCCCC2C1Cc1ccc(O)cc13 (configuration not stated) [Dextrorphan]	3.87
CN1C(=O)CN=C(c2ccccc2)c2cc(Cl)ccc21 [Diazepam]	1.1
COC(=O)c1ccccc1C(=O)OC [Dimethyl phthalate]	1.04
CCCCCCCCOC(=O)c1ccccc1C(=O)OCCCCCCCC [Dioctyl Phthalate]	0.96
CCOC(=O)C1(c2ccccc2)CCN(CCC(C#N)(c2ccccc2)c2ccccc2)CC1 [Diphenoxylate]	1.41

Now from value to compound:

LC retention time [min]	Compound
4.93	CN1CC(=O)NC1=N [Creatinine]
0.97	CC=CC(=O)N(CC)c1ccccc1C [Crotamiton]
1.29	CC(C)CC1NC(=O)C2CCCN2C1=O (configuration not stated) [Cyclo(Leu-Pro)]
5.1	NC1CCCCC1 [Cyclohexanamine]
2.31	CN1CCC(=C2c3ccccc3C=Cc3ccccc32)CC1 [Cyproheptadine]
9.91	NC(CCSCC(N)C(=O)O)C(=O)O (configuration not stated) [Cystathionine]
8.92	NC(CS(=O)(=O)O)C(=O)O (configuration not stated) [Cysteic acid]
5.31	NC(CS)C(=O)O (configuration not stated) [Cysteine]
9.97	NC(CSSCC(N)C(=O)O)C(=O)O (configuration not stated) [Cystine]
9.48	Nc1ccn(C2OC(COP(=O)(O)O)C(O)C2O)c(=O)n1 (configuration not stated) [Cytidine-5'-monophosphate]
5.9	Nc1ccnc(=O)[nH]1 [Cytosine]
1.39	O=c1c(-c2ccc(O)cc2)coc2cc(O)ccc12 [Daidzein]
2.17	CCCCCCCCCC=O [Decanal]
1.16	CC(CCC(=O)O)C1CCC2C3C(=O)CC4CC(=O)CCC4(C)C3CC(=O)C12C (configuration not stated) [Dehydrocholic acid]
8.25	O=c1ccn(C2CC(O)C(COP(=O)(O)O)O2)c(=O)[nH]1 (configuration not stated) [Deoxyuridine monophosphate]
4.9	Clc1ccc2c(c1)CCc1cccnc1C2=C1CCNCC1 [Desloratadine]
1.13	CC1CC2C3CCC4=CC(=O)C=CC4(C)C3(F)C(O)CC2(C)C1C(=O)CO (configuration not stated) [Desoximetasone]
6.61	CS(=O)CCCCC(=NO)SC1OC(CO)C(O)C(O)C1O (configuration not stated) [Desulfo Glucoraphanin]
2.56	CN(C)CCC(c1ccc(Br)cc1)c1ccccn1 (configuration not stated) [Dexbrompheniramine]
1.09	CC1=NS(=O)(=O)c2cc(Cl)ccc2N1 [Diazoxide]
1.08	O=C(O)Cc1ccccc1Nc1c(Cl)cccc1Cl [Diclofenac]
1.07	COc1cc(CNC(=O)CCCCCCC(C)C)ccc1O [Dihydrocapsaicin]
4.47	CCCCCCCCCCCCCCCC(O)C(N)CO (configuration not stated) [Dihydrosphingosine]
2.99	CC(CO)CCNc1ncnc2nc[nH]c12 (configuration not stated) [Dihydrozeatin]
2.15	CN(C)CCOC(c1ccccc1)c1ccccc1 [Diphenhydramine]
